# Assay results as given in paper PMC12948223, “HSP70 Interactome‐Mediated Proteolysis Targeting Chimera (HSP70‐PROTAC) for Ferroptosis‐Driven Cancer Treatment” (Advanced Science, 2025).
# Legend:
# [1] = Relative drug biodistribution in HT1080 xenograft mice (LC-MS/MS); format: in vivo, nude mice; conditions: 50 mg/kg, 12 h, n = 1
# Excerpt: (§1) In addition, the tumor samples from the six treatment groups were randomly collected and probed for the levels of GPX4, and 4‐HNE (4‐hydroxynonenal, a lipid peroxidation marker) by immunohistochemistry (IHC) staining (Figure 7G). […] Collectively, the HSP70‐PROTAC GDAz‐3 has been confirmed as an effective ferroptosis‐inducing agent, which can degrade GPX4 both in vitro and in vivo via UPS and CMA dual processes.
# GDAz‐3 was intravenously injected into an HT1080‐bearing xenograft tumor mouse model at 50 mg kg^−1. After 12 h of treatment, samples of tumor tissue and major organs, including the heart, liver, spleen, lung, kidney, and intestine, were collected. After weighing, these samples were processed into homogenates, and 500 µL of cold methanol was added. After thorough mixing, the supernatant was generated by centrifugation (4 °C, 12 000 rpm, 15 min), and then analyzed by liquid chromatography‐tandem mass spectrometry (Agilent 6495C Triple Quadrupole LC/MS). In brief, a volume of 1 µL from each sample was extracted and injected into a Waters Acquity Premmier BEH C18 (2.1 × 50 mm, 1.7 µm) column. The solvent delivery module was used to deliver an HPLC gradient of 20–95% B over 7 min (A: 0.1% formic acid in water, B: acetonitrile) at a flow rate of 0.3 mL min^−1. […] The quantification was performed based on peak area. […]
# GPX4 [2] = molecular target: T1, GPX4 (Homo sapiens, UniProt P36969); assay: GPX4 degradation by western blot in 786-O cells; format: cell-based; parameters: endogenous in cells; host or cells: 786-O; conditions: 24 h
# T1 sequence (P36969 1-170 isoform P36969-2): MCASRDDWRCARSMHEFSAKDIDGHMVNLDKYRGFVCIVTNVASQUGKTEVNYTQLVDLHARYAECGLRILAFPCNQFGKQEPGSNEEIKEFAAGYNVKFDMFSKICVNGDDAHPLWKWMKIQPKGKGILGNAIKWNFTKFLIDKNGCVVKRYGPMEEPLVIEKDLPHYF
# Excerpt: As previously mentioned, drug resistance and limited application scope are the significant challenges of traditional PROTAC, due partly to CRBN/VHL mutations or low expression. In this study, we investigated whether the developed HSP70‐PROTAC could address these challenges. Specifically, we examined the developed HSP70‐PROTAC in scenarios where VHL‐ or CRBN‐based PROTACs are ineffective due to intrinsic or acquired resistance. Several previously reported representative GPX4‐targeting degraders, including dGPX4 (CRBN‐based PROTAC, Figure 1A), 8e (VHL‐based PROTAC, Figure 1B), and GDCNF‐11/2 (HSP90‐based HIM‐PROTAC, Figure 1C, the structure of the GDCNF‐11 derivative GDCNF‐2 was not shown) were selected as control agents.^[ [18], [23], [28] ^] […] The clear cell renal cell carcinoma (ccRCC) 786‐O cell line is a well‐established cancer cell model characterized by an intrinsic deficiency in VHL expression.^[ [43], [44], [45] ^] We also confirmed this characteristic through evaluating the VHL expression levels in several randomly selected cancer cell lines (Figure S10A, Supporting Information). We further selected 786‐O cells as a model to confirm whether HSP70‐PROTAC could be used in such cases as an alternative to VHL‐based degraders, because VHL‐based PROTACs cannot be used to treat kidney cancer with a mutation or deletion in the VHL gene.
# Cells were seeded at a density of 4 × 10^5 cells well^−1 in 6‐well plates and allowed to incubate overnight. Cells were incubated with the indicated treatments. Thereafter, the cells were collected and lysed with RIPA buffer containing serine protease and phosphatase inhibitors for 30 min on ice. Proteins were quantified by using a BCA protein assay kit (Beyotime). Subsequently, SDS‐PAGE sample loading buffer was added, and the mixture was heated in a 100 °C metal bath for 10 min to denature the proteins. Protein samples from each group were separated by SDS‐PAGE gel and transferred to a PVDF membrane. After blocking with 5% skim milk for 1 h at room temperature, primary antibodies (GPX4: abcam (#ab125066, 1:1000); Hsp70: abcam (#ab2787, 1:1000); CHIP: HUABIO (#ST7108, 1:1000); UpingBio Technology Co., Ltd. (BRD4, #YP‐Ab‐18034, 1:1000; BAG‐1, #YP‐Ab‐00575, 1:1000); GAPDH: Proteintech (#60004‐1‐Ig, 1:50 000)) were used and incubated at 4 °C overnight on a rotary shaker. After washing the membranes with TBST buffer five times, the membranes were incubated with a second antibody (Cell Signaling Technology, #7074S, 1:1000 and #7076S, 1:1000) at room temperature for 2 h. Ultimately, the membrane was washed five times, and the antibody‐protein complexes were visualized using an ECL luminescence reagent (Biosharp, Shanghai, China). The relative intensities of the bands were analyzed by ImageJ and normalized to a loading control.
# GPX4 [3] = molecular target: T1, GPX4; assay: GPX4 and 4-HNE in HT1080 xenograft tumor tissue (IHC, western blot); format: in vivo, nude mice; parameters: from tissue; host or cells: HT1080 xenograft tumour tissue from BALB/c nude mice
# Excerpt: as §1
# The experimental procedures of the animal experiments were permitted by the Hangzhou Institute of Medicine (HIM), Chinese Academy of Sciences (AP2024‐07‐0010). Male BALB/c nude mice (6 weeks old) were housed under pathogen‐free conditions, maintained at a constant room temperature, and fed standard rodent chow and water. An HT1080 fibrosarcoma xenograft model in nude mice was established through subcutaneous transplantation. When the tumors emerged, the mice were randomly divided into six groups with six mice in each group: […], including the vehicle group, and each of the two inhibitor‐treated groups (ML162 and apoptozole) at 30 mg kg^−1, and their combinations. […] Body weight and tumor size were measured every other day, and the tumor volume and body weight were recorded every other day after drug treatment. After treatment, the animals were euthanized by cervical dislocation, and the tumor bulks were peeled off and weighed. The organ tissues (tumor, heart, liver, spleen, lung, and kidney) were harvested and fixed with 4% paraformaldehyde for hematoxylin‐eosin (H&E) and immunohistochemistry (IHC) staining. In addition, the expression of GPX4 in tumor samples was analyzed in vehicle‐ and GDAz‐3‐treated groups by western blot assay.
# [4] = 30 and 60 mg/kg, vs vehicle group
smiles,measurement,setting,value
"COc1ccc(-c2nc(-c3cc(C(F)(F)F)cc(C(F)(F)F)c3)n(Cc3ccc(C(=O)NCCOCCOCCOCCn4cc(COc5ccc(N(C(=O)CCl)C(C(=O)NCCc6ccccc6)c6cccs6)cc5Cl)nn4)cc3)c2-c2ccc(OC)cc2)cc1 (centres unmarked) [GDAz-3, 4-((2-(3,5-bis(trifluoromethyl)phenyl)-4,5-bis(4-methoxyphenyl)-1H-imidazol-1-yl)methyl)-N-(2-(2-(2-(2-(4-((2-chloro-4-(2-chloro-N-(2-oxo-2-(phenethylamino)-1-(thiophen-2-yl)ethyl)acetamido)phenoxy)methyl)-1H-1,2,3-triazol-1-yl)ethoxy)ethoxy)ethoxy)ethyl)benzamide]",Concentration in tumor tissue relative to other tissues,[1],significantly higher than that in other tissues
same,GPX4 degradation in 786-O cells,GPX4 [2]; 0.5 µM,obvious GPX4 degradation
same,remaining activity at 0.1 µM,"GPX4 [2]; 786-0, 786-O cell line, 0.1 µM, read-out: GPX4 % of control",89%
same,remaining activity at 0.5 µM,"GPX4 [2]; 786-0, 786-O cell line, 0.5 µM, read-out: GPX4 % of control",54%
same,remaining activity at 1 µM,"GPX4 [2]; 786-0, 786-O cell line, 1 µM, read-out: GPX4 % of control",33%
same,4-HNE levels in tumor (IHC),GPX4 [3]; [4],increase in 4‐HNE levels
same,GPX4 levels in tumor (IHC),GPX4 [3]; [4],reduction in GPX4 levels
same,GPX4 protein in HT1080 tumor tissue (western blot),GPX4 [3]; single IP injection 50 mg/kg,"reduce the level of GPX4 protein over the vehicle control at the 12, 24, and 36 h time points"
